The values below are quoted from earlier work in patent US20110190221A1, “MODULATION AND REPLETION/ENHANCEMENT OF THE COMPLEMENT SYSTEM FOR TREATMENT OF TRAUMA” (APELLIS AG, priority 2008, published 2011).

In the series the test system is complement activation. The conditions noted are these: relative to compstatin amidated at the C-terminus; based on published data (WO2004/026328, Mallik 2005, Katragadda 2006).

Consider ICVVQDWGHHRCT [Ac-compstatin], for which the Activity over compstatin was 3 × more.
